Reference: patent publication US8063220B2, “Sulfonyl-quinoline derivatives” (Richter Gedeon Nyrt., priority 2007, dated 2011)

What was measured:
rat mGluR5 = molecular target: T1, rat mGluR5 (Rattus norvegicus, UniProt P31424); assay: MGluR5 receptor binding test ([3H]-M-MPEP displacement, rat cerebro-cortical membrane preparation); conditions: rat mGluR5, [3H]-M-MPEP 2 nM; read-out: mGlu5 Ki
T1 construct: Rat cerebro-cortical membrane preparation was used; from tissue; host or cells: rat cerebral cortex (membrane preparation)
Description: Rat cerebro-cortical membrane preparation was used to determine the binding characteristics of reference compounds and novel compounds to the rat mGluR5. The A18 cell line expressing hmGluR5a (purchased from Euroscreen) was used to determine binding characteristics of the chemical compounds to the human mGluR5a receptor. [3H]-M-MPEP (2 nM) was used as radioligand. The nonspecific binding was determined in the presence of 10 μM M-MPEP.

rat mGluR1 = molecular target: T2, rat mGluR1 (Rattus norvegicus, UniProt P23385); assay: MGluR1 receptor binding test ([3H]R214127 displacement, rat cerebellar membrane preparation); conditions: rat mGluR1, [3H]R214127 3 nM; read-out: mGlu1 Ki
T2 construct: rat cerebellar membrane preparation was used; from tissue; host or cells: rat cerebellum (membrane preparation)
Description: MGluR1 receptor binding tests were performed according to modified method of Lavreysen et al. (Mol. Pharm., 2003, 63, 1082). Based on the high homology between the human and rat mGluR1 receptors, rat cerebellar membrane preparation was used to determine the binding characteristics of reference compounds and novel compounds to the rat mGluR1. [3H]R214127 (3 nM) was used as radioligand and the nonspecific binding was determined in the presence of 1 μM of R214127.
IC-50 values were determined from displacement curves by nonlinear regression analysis and were converted to Ki values using the equation method of Cheng and Prusoff (Biochem. Pharmacol., 1973, 22, 3099).

T2 sequence (P23385 19-1199): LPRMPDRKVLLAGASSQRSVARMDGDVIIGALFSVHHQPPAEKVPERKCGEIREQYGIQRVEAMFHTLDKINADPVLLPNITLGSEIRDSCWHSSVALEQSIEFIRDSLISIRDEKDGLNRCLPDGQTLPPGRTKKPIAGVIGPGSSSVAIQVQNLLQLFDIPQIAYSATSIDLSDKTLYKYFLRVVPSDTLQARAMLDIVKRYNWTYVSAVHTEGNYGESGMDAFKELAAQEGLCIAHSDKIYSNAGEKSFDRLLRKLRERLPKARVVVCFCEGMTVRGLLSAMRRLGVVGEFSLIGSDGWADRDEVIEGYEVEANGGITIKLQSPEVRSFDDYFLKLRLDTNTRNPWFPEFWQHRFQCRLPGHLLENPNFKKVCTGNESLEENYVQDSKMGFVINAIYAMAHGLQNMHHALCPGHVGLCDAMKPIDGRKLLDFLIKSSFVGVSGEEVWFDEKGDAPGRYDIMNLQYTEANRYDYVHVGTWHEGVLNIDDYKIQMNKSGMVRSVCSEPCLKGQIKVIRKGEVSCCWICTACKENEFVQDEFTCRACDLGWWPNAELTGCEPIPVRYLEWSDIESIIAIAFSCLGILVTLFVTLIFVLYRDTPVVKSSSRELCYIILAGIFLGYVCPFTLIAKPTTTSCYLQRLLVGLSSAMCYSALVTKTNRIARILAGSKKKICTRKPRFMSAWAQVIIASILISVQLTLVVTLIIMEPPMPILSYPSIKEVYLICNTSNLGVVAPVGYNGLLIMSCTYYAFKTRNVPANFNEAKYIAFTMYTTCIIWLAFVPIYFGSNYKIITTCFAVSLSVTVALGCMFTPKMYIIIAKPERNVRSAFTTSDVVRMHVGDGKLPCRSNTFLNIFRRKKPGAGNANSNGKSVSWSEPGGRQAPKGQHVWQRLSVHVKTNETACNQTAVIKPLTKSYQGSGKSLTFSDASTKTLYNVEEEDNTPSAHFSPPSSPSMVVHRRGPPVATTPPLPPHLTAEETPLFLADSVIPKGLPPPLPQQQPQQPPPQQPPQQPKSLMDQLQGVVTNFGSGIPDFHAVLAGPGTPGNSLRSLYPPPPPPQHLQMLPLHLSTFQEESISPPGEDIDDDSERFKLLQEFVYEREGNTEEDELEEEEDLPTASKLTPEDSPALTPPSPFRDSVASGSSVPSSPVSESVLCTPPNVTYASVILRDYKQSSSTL
T1 sequence (P31424 21-1203): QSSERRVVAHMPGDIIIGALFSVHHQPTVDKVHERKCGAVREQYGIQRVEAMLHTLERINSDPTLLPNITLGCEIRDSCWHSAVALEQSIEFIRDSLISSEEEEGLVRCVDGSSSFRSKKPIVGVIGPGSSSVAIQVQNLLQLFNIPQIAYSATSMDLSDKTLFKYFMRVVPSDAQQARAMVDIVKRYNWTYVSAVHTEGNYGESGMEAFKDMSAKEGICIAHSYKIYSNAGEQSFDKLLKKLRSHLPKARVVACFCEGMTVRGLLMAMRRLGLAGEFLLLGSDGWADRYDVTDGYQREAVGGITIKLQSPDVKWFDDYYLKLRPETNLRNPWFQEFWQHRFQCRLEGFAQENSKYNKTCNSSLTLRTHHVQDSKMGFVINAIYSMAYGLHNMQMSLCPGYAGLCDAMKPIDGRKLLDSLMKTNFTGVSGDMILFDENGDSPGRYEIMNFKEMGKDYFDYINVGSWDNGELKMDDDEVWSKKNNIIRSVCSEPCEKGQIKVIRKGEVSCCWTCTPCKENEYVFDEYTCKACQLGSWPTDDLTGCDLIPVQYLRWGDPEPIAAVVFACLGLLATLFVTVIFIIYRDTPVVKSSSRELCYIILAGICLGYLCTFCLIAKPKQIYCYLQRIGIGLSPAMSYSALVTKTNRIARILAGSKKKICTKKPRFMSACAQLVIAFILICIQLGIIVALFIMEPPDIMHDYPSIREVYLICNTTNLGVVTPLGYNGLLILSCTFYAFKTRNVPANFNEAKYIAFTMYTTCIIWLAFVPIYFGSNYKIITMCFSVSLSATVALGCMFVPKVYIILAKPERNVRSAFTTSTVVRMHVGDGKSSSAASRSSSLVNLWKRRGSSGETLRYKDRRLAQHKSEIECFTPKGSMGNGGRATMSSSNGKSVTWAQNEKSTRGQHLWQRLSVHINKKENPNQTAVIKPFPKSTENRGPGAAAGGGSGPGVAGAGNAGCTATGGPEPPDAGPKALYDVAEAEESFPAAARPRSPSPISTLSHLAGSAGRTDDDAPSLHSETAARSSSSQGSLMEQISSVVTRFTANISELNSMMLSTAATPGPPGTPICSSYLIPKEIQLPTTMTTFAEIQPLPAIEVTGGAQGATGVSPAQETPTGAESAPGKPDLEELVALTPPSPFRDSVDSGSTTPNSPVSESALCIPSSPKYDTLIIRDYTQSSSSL

| Compound | Ki (rat mGluR5) | Ki (rat mGluR1) |
| --- | --- | --- |
| O=S(=O)(c1ccc(F)c(Cl)c1)c1cnc2c(F)cccc2c1-c1ccc(Cl)cc1 [Compound 208] | < 200 nM | 200 to 500 nM |
| N#Cc1cc(F)cc(S(=O)(=O)c2cnc3ccccc3c2-c2ccc(F)cc2)c1 [Compound 271] | < 200 nM | > 500 nM |
| COc1ccc(-c2c(S(=O)(=O)c3ccc(C)c(F)c3)cnc3c(F)cccc23)cc1 [Compound 112] | < 200 nM | > 500 nM |
| N#Cc1cc(F)cc(S(=O)(=O)c2cnc3ccccc3c2-c2cccc(Cl)c2)c1 [Compound 226] | < 200 nM | > 500 nM |
| O=S(=O)(c1ccc(F)cc1)c1cnc2ccc(F)cc2c1-c1ccc(Cl)cc1 [Compound 25] | 200 to 500 nM | > 500 nM |
| COc1ccc(S(=O)(=O)c2cnc3c(F)cccc3c2-c2ccc(Cl)cc2)cc1 [Compound 54] | < 200 nM | < 200 nM |
| O=S(=O)(c1cccc(F)c1)c1cnc2c(F)cccc2c1-c1cccc(Cl)c1 [Compound 58] | < 200 nM | 200 to 500 nM |
| O=S(=O)(c1ccc(F)c(Cl)c1)c1cnc2c(F)cccc2c1-c1ccccc1F [Compound 209] | < 200 nM | 200 to 500 nM |
| N#Cc1cccc(S(=O)(=O)c2cnc3cc(C#N)ccc3c2-c2ccc(F)cc2)c1 [Compound 193] | 200 to 500 nM | > 500 nM |
| O=S(=O)(c1cc(Cl)cc(Cl)c1)c1cnc2cc(F)ccc2c1-c1ccc(Cl)cc1 [Compound 157] | < 200 nM | 200 to 500 nM |
| O=S(=O)(c1cc(Cl)cc(Cl)c1)c1cnc2c(F)cccc2c1-c1cccc(Cl)c1 [Compound 158] | < 200 nM | 200 to 500 nM |
| O=S(=O)(c1cc(F)cc(F)c1)c1cnc2cc(F)ccc2c1-c1cccc(Cl)c1 [Compound 87] | 200 to 500 nM | > 500 nM |
| O=S(=O)(c1ccc(Cl)cc1)c1cnc2c(Cl)cccc2c1-c1cccc(Cl)c1 [Compound 6] | 200 to 500 nM | > 500 nM |
| N#Cc1cc(S(=O)(=O)c2cnc3ccccc3c2-c2cccc(Cl)c2)ccc1F [Compound 217] | < 200 nM | > 500 nM |
| O=S(=O)(c1ccc(F)cc1)c1cnc2ccc(F)cc2c1-c1cccc(Cl)c1 [Compound 24] | > 500 nM | > 500 nM |
| O=S(=O)(c1ccc(Cl)cc1)c1cnc2c(Cl)cccc2c1-c1ccc(Cl)c(Cl)c1 [Compound 184] | > 500 nM | > 500 nM |
| N#Cc1cc(S(=O)(=O)c2cnc3cc(F)ccc3c2-c2cccc(F)c2)ccc1F [Compound 216] | < 200 nM | > 500 nM |
| O=S(=O)(c1cc(F)cc(F)c1)c1cnc2cc(F)c(Cl)cc2c1-c1ccc(Cl)cc1 [Compound 198] | > 500 nM | > 500 nM |
| Cc1ccc(S(=O)(=O)c2cnc3ccc(F)cc3c2-c2ccc(F)cc2)cc1F [Compound 131] | < 200 nM | > 500 nM |
| COc1ccc(-c2c(S(=O)(=O)c3ccc(C)c(C)c3)cnc3ccc(F)cc23)cc1 [Compound 147] | < 200 nM | > 500 nM |
| O=S(=O)(c1ccc(F)c(F)c1)c1cnc2cc(F)ccc2c1-c1ccc(Cl)cc1 [Compound 247] | < 200 nM | > 500 nM |

| Compound | Ki (rat mGluR5) | Ki (rat mGluR1) |
| --- | --- | --- |
| O=S(=O)(c1ccc(F)c(Cl)c1)c1cnc2ccc(F)cc2c1-c1ccc(F)cc1 [Compound 155] | < 200 nM | 200 to 500 nM |
| O=S(=O)(c1cc(F)cc(F)c1)c1cnc2cc(Cl)c(F)cc2c1-c1ccc(Cl)cc1 [Compound 201] | > 500 nM | > 500 nM |
| COc1ccc(-c2c(S(=O)(=O)c3cccc(C#N)c3)cnc3ccc(F)cc23)cc1 [Compound 137] | < 200 nM | > 500 nM |
| Cc1ccc(S(=O)(=O)c2cnc3cc(F)ccc3c2-c2cccc(Cl)c2)cc1F [Compound 84] | < 200 nM | > 500 nM |
| O=S(=O)(c1cc(F)cc(F)c1)c1cnc2c(F)cccc2c1-c1ccc(F)cc1 [Compound 119] | < 200 nM | < 200 nM |
| N#Cc1cccc(S(=O)(=O)c2cnc3ccc(F)cc3c2-c2cccc(F)c2)c1 [Compound 67] | < 200 nM | 200 to 500 nM |
| COc1ccc(S(=O)(=O)c2cnc3c(F)cccc3c2-c2cccc(F)c2)cc1 [Compound 55] | < 200 nM | > 500 nM |
| O=S(=O)(c1cc(F)cc(F)c1)c1cnc2ccc(F)cc2c1-c1cccc(Cl)c1 [Compound 64] | > 500 nM | > 500 nM |
| N#Cc1cc(S(=O)(=O)c2cnc3cc(Cl)ccc3c2-c2ccc(Cl)cc2)ccc1F [Compound 277] | < 200 nM | 200 to 500 nM |
| O=S(=O)(c1cc(F)cc(F)c1)c1cnc2c(F)cccc2c1-c1cccc(Cl)c1 [Compound 115] | < 200 nM | 200 to 500 nM |
| O=S(=O)(c1cc(Cl)cc(Cl)c1)c1cnc2c(F)cccc2c1-c1ccc(Cl)cc1 [Compound 159] | < 200 nM | 200 to 500 nM |
| COc1ccc(-c2c(S(=O)(=O)c3cccc(F)c3)cnc3cc(F)ccc23)cc1 [Compound 42] | 200 to 500 nM | > 500 nM |
| O=S(=O)(c1ccc(F)c(F)c1)c1cnc2cc(F)ccc2c1-c1ccccc1F [Compound 261] | < 200 nM | > 500 nM |
| O=S(=O)(c1cc(Cl)cc(Cl)c1)c1cnc2c(F)c(Cl)ccc2c1-c1cccc(Cl)c1 [Compound 252] | < 200 nM | 200 to 500 nM |
| N#Cc1cc(S(=O)(=O)c2cnc3ccccc3c2-c2ccc(F)cc2)ccc1F [Compound 211] | < 200 nM | > 500 nM |
| O=S(=O)(c1cccc(F)c1)c1cnc2cc(Cl)ccc2c1-c1ccc(Cl)cc1 [Compound 173] | < 200 nM | > 500 nM |
| N#Cc1cc(F)cc(S(=O)(=O)c2cnc3cc(F)ccc3c2-c2ccc(F)c(F)c2)c1 [Compound 231] | < 200 nM | > 500 nM |
| O=S(=O)(c1ccc(F)c(F)c1)c1cnc2ccccc2c1-c1ccc(F)cc1 [Compound 237] | < 200 nM | > 500 nM |
| N#Cc1cccc(S(=O)(=O)c2cnc3cc(F)ccc3c2-c2cccc(Cl)c2)c1 [Compound 91] | < 200 nM | < 200 nM |
| Cc1ccc(S(=O)(=O)c2cnc3c(F)cccc3c2-c2ccc(F)cc2)cc1F [Compound 114] | < 200 nM | > 500 nM |
| O=S(=O)(c1cc(Cl)cc(Cl)c1)c1cnc2cc(F)ccc2c1-c1ccc(F)c(F)c1 [Compound 239] | < 200 nM | > 500 nM |

| Compound | Ki (rat mGluR5) | Ki (rat mGluR1) |
| --- | --- | --- |
| O=S(=O)(c1cc(Cl)cc(Cl)c1)c1cnc2cc(F)ccc2c1-c1ccccc1F [Compound 257] | < 200 nM | > 500 nM |
| Cc1ccc(S(=O)(=O)c2cnc3ccccc3c2-c2ccc(Cl)cc2)cc1 [Compound 1, 4-(4-chloro-phenyl)-3-(4-methyl-benzenesulfonyl)-quinoline] | < 200 nM | 200 to 500 nM |
| N#Cc1cccc(S(=O)(=O)c2cnc3ccc(F)cc3c2-c2ccc(Cl)cc2)c1 [Compound 136] | < 200 nM | 200 to 500 nM |
| O=S(=O)(c1cc(Cl)cc(Cl)c1)c1cnc2cc(Cl)ccc2c1-c1cccc(Cl)c1 [Compound 263] | < 200 nM | 200 to 500 nM |
| O=S(=O)(c1ccc(F)c(Cl)c1)c1cnc2cc(F)ccc2c1-c1cccc(Cl)c1 [Compound 258] | < 200 nM | 200 to 500 nM |
| Cc1ccc(S(=O)(=O)c2cnc3cc(F)ccc3c2-c2ccc(F)cc2)cc1C [Compound 46] | < 200 nM | > 500 nM |
| COc1cccc(-c2c(S(=O)(=O)c3cccc(Cl)c3)cnc3ccc(F)cc23)c1 [Compound 34] | > 500 nM | > 500 nM |
| COc1cccc(-c2c(S(=O)(=O)c3cccc(C#N)c3)cnc3cc(F)ccc23)c1 [Compound 93] | < 200 nM | > 500 nM |
| COc1ccc(-c2c(S(=O)(=O)c3ccc(F)c(Cl)c3)cnc3cc(F)ccc23)cc1 [Compound 104] | < 200 nM | 200 to 500 nM |
| O=S(=O)(c1cc(Cl)cc(Cl)c1)c1cnc2ccc(F)cc2c1-c1ccc(Cl)cc1 [Compound 161] | < 200 nM | > 500 nM |
| O=S(=O)(c1cc(F)cc(F)c1)c1cnc2ccc(F)cc2c1-c1ccc(Cl)cc1 [Compound 132] | 200 to 500 nM | > 500 nM |
| N#Cc1cccc(S(=O)(=O)c2cnc3ccc(F)cc3c2-c2cccc(Cl)c2)c1 [Compound 135] | < 200 nM | 200 to 500 nM |
| O=S(=O)(c1ccc(F)c(Cl)c1)c1cnc2cc(F)ccc2c1-c1cccc(F)c1 [Compound 103] | < 200 nM | < 200 nM |
| O=S(=O)(c1cc(F)cc(F)c1)c1cnc2ccc(F)cc2c1-c1ccc(F)cc1 [Compound 66] | 200 to 500 nM | > 500 nM |
| COc1ccc(S(=O)(=O)c2cnc3cc(F)ccc3c2-c2cccc(Cl)c2)cc1Cl [Compound 47] | < 200 nM | 200 to 500 nM |
| N#Cc1cccc(S(=O)(=O)c2cnc3c(F)cccc3c2-c2ccc(F)cc2)c1 [Compound 222] | < 200 nM | > 500 nM |
| Cc1ccc(S(=O)(=O)c2cnc3c(F)cccc3c2-c2ccc(Cl)cc2)cc1F [Compound 110] | < 200 nM | > 500 nM |
| O=S(=O)(c1ccc(F)c(Cl)c1)c1cnc2c(F)cccc2c1-c1cccc(F)c1 [Compound 210] | < 200 nM | 200 to 500 nM |
| O=S(=O)(c1cc(Cl)cc(Cl)c1)c1cnc2cc(Cl)ccc2c1-c1cccc(F)c1 [Compound 166] | < 200 nM | > 500 nM |
